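Test compounds were applied to cells in 96-well plates for 48 hours at 5 doses. At the GI50, growth is halved. TGI marks complete inhibition of growth.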
Assays:
Test in all cases: NCI anticancer screen, dose series, 48 h
786-0 renal = system: 786-0 renal
A498 renal = system: A498 renal
A549 NSCLC = system: A549 NSCLC
ACHN renal = system: ACHN renal
BT-549 breast = system: BT-549 breast
CAKI-1 renal = system: CAKI-1 renal
CCRF-CEM leukemia = system: CCRF-CEM leukemia
COLO 205 colon = system: COLO 205 colon
DU-145 prostate = system: DU-145 prostate
EKVX NSCLC = system: EKVX NSCLC
HCC-2998 colon = system: HCC-2998 colon
HCT-116 colon = system: HCT-116 colon
HCT-15 colon = system: HCT-15 colon
HL-60(TB) leukemia = system: HL-60(TB) leukemia
HOP-62 NSCLC = system: HOP-62 NSCLC
HOP-92 NSCLC = system: HOP-92 NSCLC
HS 578T breast = system: HS 578T breast
HT29 colon = system: HT29 colon
IGROV1 ovarian = system: IGROV1 ovarian
K-562 leukemia = system: K-562 leukemia
KM12 colon = system: KM12 colon
LOX IMVI melanoma = system: LOX IMVI melanoma
M14 melanoma = system: M14 melanoma
MCF7 breast = system: MCF7 breast
MDA-MB-231 breast = system: MDA-MB-231 breast
MDA-MB-435 = system: MDA-MB-435
MOLT-4 leukemia = system: MOLT-4 leukemia
NCI-H226 lung = system: NCI-H226 lung
NCI-H23 lung = system: NCI-H23 lung
NCI-H460 lung = system: NCI-H460 lung
NCI-H522 lung = system: NCI-H522 lung
NCI/ADR-RES ovarian = system: NCI/ADR-RES ovarian
OVCAR-3 ovarian = system: OVCAR-3 ovarian
OVCAR-4 ovarian = system: OVCAR-4 ovarian
OVCAR-5 ovarian = system: OVCAR-5 ovarian
OVCAR-8 ovarian = system: OVCAR-8 ovarian
PC-3 prostate = system: PC-3 prostate
RPMI-8226 leukemia = system: RPMI-8226 leukemia
SF-268 CNS = system: SF-268 CNS
SF-295 CNS = system: SF-295 CNS
SF-539 CNS = system: SF-539 CNS
SK-MEL-2 melanoma = system: SK-MEL-2 melanoma
SK-MEL-28 melanoma = system: SK-MEL-28 melanoma
SK-MEL-5 melanoma = system: SK-MEL-5 melanoma
SN12C renal = system: SN12C renal
SNB-19 CNS = system: SNB-19 CNS
SNB-75 CNS = system: SNB-75 CNS
SR leukemia = system: SR leukemia
SW-620 colon = system: SW-620 colon
T-47D breast = system: T-47D breast
TK-10 renal = system: TK-10 renal
U251 CNS = system: U251 CNS
UACC-257 melanoma = system: UACC-257 melanoma
UACC-62 melanoma = system: UACC-62 melanoma
UO-31 renal = system: UO-31 renal

For `CCOC(=O)c1c(C)n2c(=O)cc(C)c3c(O)c(O)cc1c32`, the GI50 (786-0 renal) was 8.83 µM, the TGI (786-0 renal) was > 100 µM and the GI50 (A498 renal) was 27.4 µM. For the same compound, the TGI (A498 renal) was > 100 µM, the GI50 (A549 NSCLC) was 5.56 µM and the TGI (A549 NSCLC) was 49.1 µM. The GI50 (ACHN renal) was 1.82 µM, the TGI (ACHN renal) was 31.2 µM and the GI50 (BT-549 breast) was 15.9 µM. The TGI (BT-549 breast) was 79.7 µM, the GI50 (CAKI-1 renal) was 2.2 µM and the TGI (CAKI-1 renal) was > 100 µM. For the same compound, the GI50 (CCRF-CEM leukemia) was 0.746 µM, the TGI (CCRF-CEM leukemia) was 6.05 µM and the GI50 (COLO 205 colon) was 13.1 µM. The TGI (COLO 205 colon) was > 100 µM, the GI50 (DU-145 prostate) was 29.1 µM and the TGI (DU-145 prostate) was > 100 µM. The GI50 (EKVX NSCLC) was 20.8 µM, the TGI (EKVX NSCLC) was > 100 µM and the GI50 (HCC-2998 colon) was 40.8 µM. For the same compound, the TGI (HCC-2998 colon) was > 100 µM, the GI50 (HCT-116 colon) was 18.5 µM and the TGI (HCT-116 colon) was 35.5 µM. For the same compound, the GI50 (HCT-15 colon) was 2.48 µM, the TGI (HCT-15 colon) was 51.1 µM and the GI50 (HL-60(TB) leukemia) was 2.92 µM. For the same compound, the TGI (HL-60(TB) leukemia) was 17.2 µM, the GI50 (HOP-62 NSCLC) was 38.4 µM and the TGI (HOP-62 NSCLC) was > 100 µM. For the same compound, the GI50 (HOP-92 NSCLC) was 2.49 µM, the TGI (HOP-92 NSCLC) was 31.6 µM and the GI50 (HS 578T breast) was 25.6 µM. For the same compound, the TGI (HS 578T breast) was > 100 µM, the GI50 (HT29 colon) was 24.5 µM and the TGI (HT29 colon) was > 100 µM. The GI50 (IGROV1 ovarian) was 4.83 µM, the TGI (IGROV1 ovarian) was 87 µM and the GI50 (K-562 leukemia) was 3.46 µM. It also gave a TGI (K-562 leukemia) of 33.3 µM, a GI50 (KM12 colon) of 4.13 µM and a TGI (KM12 colon) of 42.2 µM. It also gave a GI50 (LOX IMVI melanoma) of 3.98 µM, a TGI (LOX IMVI melanoma) of 30.5 µM and a GI50 (M14 melanoma) of 53.3 µM. For the same compound, the TGI (M14 melanoma) was > 100 µM, the GI50 (MCF7 breast) was 6.61 µM and the TGI (MCF7 breast) was > 100 µM. The GI50 (MDA-MB-231 breast) was 4.49 µM, the TGI (MDA-MB-231 breast) was 30.2 µM and the GI50 (MDA-MB-435) was 14.5 µM. The TGI (MDA-MB-435) was > 100 µM, the GI50 (MOLT-4 leukemia) was 1.34 µM and the TGI (MOLT-4 leukemia) was 15.2 µM. The GI50 (NCI-H226 lung) was 9.2 µM, the TGI (NCI-H226 lung) was 93.5 µM and the GI50 (NCI-H23 lung) was 10.9 µM. For the same compound, the TGI (NCI-H23 lung) was 51.6 µM, the GI50 (NCI-H460 lung) was 12.9 µM and the TGI (NCI-H460 lung) was > 100 µM. It also gave a GI50 (NCI-H522 lung) of 3.4 µM, a TGI (NCI-H522 lung) of 16.7 µM and a GI50 (NCI/ADR-RES ovarian) of 28.3 µM. For the same compound, the TGI (NCI/ADR-RES ovarian) was 89.4 µM, the GI50 (OVCAR-3 ovarian) was 1.42 µM and the TGI (OVCAR-3 ovarian) was 9.94 µM. For the same compound, the GI50 (OVCAR-4 ovarian) was 4.53 µM, the TGI (OVCAR-4 ovarian) was > 100 µM and the GI50 (OVCAR-5 ovarian) was 43.8 µM. The TGI (OVCAR-5 ovarian) was > 100 µM, the GI50 (OVCAR-8 ovarian) was 2.7 µM and the TGI (OVCAR-8 ovarian) was 9.32 µM. The GI50 (PC-3 prostate) was 4.23 µM, the TGI (PC-3 prostate) was > 100 µM and the GI50 (RPMI-8226 leukemia) was 1.92 µM. The TGI (RPMI-8226 leukemia) was 15.1 µM, the GI50 (SF-268 CNS) was 5.88 µM and the TGI (SF-268 CNS) was > 100 µM. The GI50 (SF-295 CNS) was 10.3 µM, the TGI (SF-295 CNS) was > 100 µM and the GI50 (SF-539 CNS) was 16.6 µM. The TGI (SF-539 CNS) was 55.3 µM, the GI50 (SK-MEL-2 melanoma) was 20.9 µM and the TGI (SK-MEL-2 melanoma) was > 100 µM. The GI50 (SK-MEL-28 melanoma) was 27.2 µM, the TGI (SK-MEL-28 melanoma) was > 100 µM and the GI50 (SK-MEL-5 melanoma) was 4.67 µM. The TGI (SK-MEL-5 melanoma) was 24.1 µM, the GI50 (SN12C renal) was 3.85 µM and the TGI (SN12C renal) was 24.6 µM. The GI50 (SNB-19 CNS) was 8.72 µM, the TGI (SNB-19 CNS) was > 100 µM and the GI50 (SNB-75 CNS) was 35.6 µM. The TGI (SNB-75 CNS) was > 100 µM, the GI50 (SR leukemia) was 0.721 µM and the TGI (SR leukemia) was 17 µM. For the same compound, the GI50 (SW-620 colon) was 4.3 µM, the TGI (SW-620 colon) was > 100 µM and the GI50 (T-47D breast) was 9.26 µM. For the same compound, the TGI (T-47D breast) was > 100 µM, the GI50 (TK-10 renal) was 5.47 µM and the TGI (TK-10 renal) was > 100 µM. For the same compound, the GI50 (U251 CNS) was 4.68 µM, the TGI (U251 CNS) was 30.5 µM and the GI50 (UACC-257 melanoma) was 2.7 µM. It also gave a TGI (UACC-257 melanoma) of 7.65 µM, a GI50 (UACC-62 melanoma) of 8.9 µM and a TGI (UACC-62 melanoma) of 29.3 µM. The GI50 (UO-31 renal) was 5.7 µM and the TGI (UO-31 renal) was > 100 µM.

— PubChem BioAssay (NCI)
